Data: paper PMC6508984 (Journal of medicinal chemistry, 2019)

Tests used:
GluA4o = GluA4o (Rattus norvegicus, UniProt P19493); details: Hill coefficient of binding curve
GluA3o = GluA3o (Rattus norvegicus, UniProt P19492); details: Hill coefficient of binding curve
GluA1o = GluA1o (Rattus norvegicus, UniProt P19490); details: Hill coefficient of binding curve
GluA2(R)o = GluA2(R)o (Rattus norvegicus, UniProt P19491, Q607R); details: Hill coefficient of binding curve
GluA2i(Q) = GluA2i(Q) (Rattus norvegicus, UniProt P19491); assay: Ca2+/Fluo-4 assay, GluA2; assay type: cell-based; details: for GluA2i(Q) SAR@: concentration giving significant agonist response >5% of the maximal response induced by (S)-Glu: HEK293, complete concentration-response curve could not be obtained
Chain of GluA2i(Q) (P19491 22-883 isoform P19491-2 limits assumed): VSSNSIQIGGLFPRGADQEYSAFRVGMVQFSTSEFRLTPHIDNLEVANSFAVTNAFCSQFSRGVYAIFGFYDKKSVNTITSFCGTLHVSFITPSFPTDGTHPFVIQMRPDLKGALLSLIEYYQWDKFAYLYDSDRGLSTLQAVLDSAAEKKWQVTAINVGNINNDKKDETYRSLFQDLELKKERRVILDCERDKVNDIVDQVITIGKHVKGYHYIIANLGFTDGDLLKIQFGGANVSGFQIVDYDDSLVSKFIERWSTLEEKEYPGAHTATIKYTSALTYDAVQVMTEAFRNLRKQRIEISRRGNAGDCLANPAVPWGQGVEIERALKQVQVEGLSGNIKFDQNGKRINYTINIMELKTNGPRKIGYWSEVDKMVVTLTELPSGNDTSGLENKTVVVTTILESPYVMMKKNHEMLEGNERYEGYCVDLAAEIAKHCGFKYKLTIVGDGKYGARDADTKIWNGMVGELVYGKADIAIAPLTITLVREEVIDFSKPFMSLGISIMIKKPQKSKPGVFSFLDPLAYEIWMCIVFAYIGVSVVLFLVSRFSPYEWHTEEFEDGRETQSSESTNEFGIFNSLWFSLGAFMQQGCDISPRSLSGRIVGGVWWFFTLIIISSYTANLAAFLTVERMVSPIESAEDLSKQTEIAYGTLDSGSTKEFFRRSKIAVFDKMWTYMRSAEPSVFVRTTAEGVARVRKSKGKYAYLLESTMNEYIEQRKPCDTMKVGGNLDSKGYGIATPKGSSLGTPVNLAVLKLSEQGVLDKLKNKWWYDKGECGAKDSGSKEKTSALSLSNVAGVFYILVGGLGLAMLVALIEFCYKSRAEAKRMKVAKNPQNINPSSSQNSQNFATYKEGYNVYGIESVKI

GluA4i = GluA4i (Rattus norvegicus, UniProt P19493); assay: cell-based; details: GluA4i EC50, HEK293; 10 mM Ca2+ and 100 μM cyclothiazide; tested up to 1000 μM
Chain of GluA4i (P19493 22-902 isoform P19493-2 limits assumed): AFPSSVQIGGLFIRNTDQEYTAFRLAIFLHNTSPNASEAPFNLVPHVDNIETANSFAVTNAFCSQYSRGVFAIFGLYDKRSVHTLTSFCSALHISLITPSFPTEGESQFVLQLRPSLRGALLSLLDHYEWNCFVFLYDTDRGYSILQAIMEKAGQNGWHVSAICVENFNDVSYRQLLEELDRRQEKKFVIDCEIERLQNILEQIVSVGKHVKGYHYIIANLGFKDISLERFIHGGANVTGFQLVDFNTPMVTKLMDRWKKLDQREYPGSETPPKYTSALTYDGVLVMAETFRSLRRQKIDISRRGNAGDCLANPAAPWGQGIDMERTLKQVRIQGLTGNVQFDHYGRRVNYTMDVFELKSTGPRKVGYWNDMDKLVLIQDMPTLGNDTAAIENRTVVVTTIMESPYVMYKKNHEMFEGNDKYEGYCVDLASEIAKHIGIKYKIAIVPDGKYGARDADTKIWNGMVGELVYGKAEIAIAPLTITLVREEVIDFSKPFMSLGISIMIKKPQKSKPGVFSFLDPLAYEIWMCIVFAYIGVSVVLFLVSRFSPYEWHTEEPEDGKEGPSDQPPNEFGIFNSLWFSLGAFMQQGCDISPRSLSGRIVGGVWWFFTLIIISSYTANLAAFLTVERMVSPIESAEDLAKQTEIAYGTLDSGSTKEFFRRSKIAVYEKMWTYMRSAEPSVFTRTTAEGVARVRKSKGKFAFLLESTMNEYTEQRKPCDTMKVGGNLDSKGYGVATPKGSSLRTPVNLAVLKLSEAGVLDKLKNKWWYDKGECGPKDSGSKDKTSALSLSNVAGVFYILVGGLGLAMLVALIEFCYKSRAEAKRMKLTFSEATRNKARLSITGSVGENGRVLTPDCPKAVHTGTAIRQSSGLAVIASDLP

GluA3i = GluA3i (Rattus norvegicus, UniProt P19492); assay: Ca2+/Fluo-4 assay, GluA3i-HEK293 cell line; assay type: cell-based
Chain of GluA3i (P19492 23-888 isoform P19492-2 limits assumed): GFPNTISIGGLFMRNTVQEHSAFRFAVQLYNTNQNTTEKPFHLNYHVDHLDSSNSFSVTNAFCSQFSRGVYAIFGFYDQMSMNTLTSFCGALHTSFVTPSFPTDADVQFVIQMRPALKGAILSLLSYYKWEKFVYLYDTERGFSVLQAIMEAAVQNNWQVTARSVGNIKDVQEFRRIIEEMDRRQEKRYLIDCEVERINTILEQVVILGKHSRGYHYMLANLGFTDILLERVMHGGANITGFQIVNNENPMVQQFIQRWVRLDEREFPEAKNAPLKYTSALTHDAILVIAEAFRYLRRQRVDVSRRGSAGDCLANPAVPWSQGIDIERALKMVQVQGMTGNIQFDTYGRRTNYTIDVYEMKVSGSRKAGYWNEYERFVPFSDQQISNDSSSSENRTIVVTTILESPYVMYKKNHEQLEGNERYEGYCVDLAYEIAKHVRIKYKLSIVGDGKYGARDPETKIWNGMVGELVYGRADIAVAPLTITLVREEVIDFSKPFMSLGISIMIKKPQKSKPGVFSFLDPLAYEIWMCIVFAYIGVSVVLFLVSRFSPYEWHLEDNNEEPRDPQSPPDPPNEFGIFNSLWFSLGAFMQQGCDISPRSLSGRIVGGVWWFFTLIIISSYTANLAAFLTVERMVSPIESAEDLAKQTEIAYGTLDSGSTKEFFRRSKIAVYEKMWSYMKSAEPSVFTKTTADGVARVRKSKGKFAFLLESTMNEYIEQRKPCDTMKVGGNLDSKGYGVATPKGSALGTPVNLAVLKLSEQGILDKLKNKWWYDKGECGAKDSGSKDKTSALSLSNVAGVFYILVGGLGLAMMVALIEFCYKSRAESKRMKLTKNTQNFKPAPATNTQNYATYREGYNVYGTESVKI

GluA1i = GluA1i (Rattus norvegicus, UniProt P19490); assay: Ca2+/Fluo-4 assay, GluA1i-HEK293 cell line; assay type: cell-based
Chain of GluA1i (P19490 19-907 isoform P19490-2 limits assumed): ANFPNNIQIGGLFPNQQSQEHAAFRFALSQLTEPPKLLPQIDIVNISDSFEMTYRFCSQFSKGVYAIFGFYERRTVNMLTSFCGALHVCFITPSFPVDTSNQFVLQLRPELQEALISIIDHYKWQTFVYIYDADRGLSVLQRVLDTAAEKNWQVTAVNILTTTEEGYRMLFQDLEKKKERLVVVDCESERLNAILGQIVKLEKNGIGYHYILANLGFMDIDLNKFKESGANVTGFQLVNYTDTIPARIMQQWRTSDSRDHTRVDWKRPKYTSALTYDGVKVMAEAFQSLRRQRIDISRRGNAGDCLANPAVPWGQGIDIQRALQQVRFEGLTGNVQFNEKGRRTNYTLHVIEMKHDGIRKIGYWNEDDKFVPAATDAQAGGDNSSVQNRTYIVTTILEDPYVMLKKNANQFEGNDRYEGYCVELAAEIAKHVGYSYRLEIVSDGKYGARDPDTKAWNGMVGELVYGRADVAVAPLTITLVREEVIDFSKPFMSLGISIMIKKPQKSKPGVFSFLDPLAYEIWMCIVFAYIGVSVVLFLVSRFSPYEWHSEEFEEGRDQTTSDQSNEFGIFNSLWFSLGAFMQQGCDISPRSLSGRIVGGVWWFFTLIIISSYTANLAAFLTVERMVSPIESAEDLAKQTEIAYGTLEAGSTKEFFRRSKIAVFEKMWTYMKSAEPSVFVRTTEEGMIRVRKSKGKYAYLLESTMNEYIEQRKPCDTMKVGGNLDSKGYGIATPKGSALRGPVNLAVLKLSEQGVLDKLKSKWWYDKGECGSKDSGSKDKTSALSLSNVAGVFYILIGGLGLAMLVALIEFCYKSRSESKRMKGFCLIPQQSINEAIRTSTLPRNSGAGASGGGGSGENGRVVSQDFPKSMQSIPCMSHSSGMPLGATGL

GluN1/2D = GluN1/2D (Rattus norvegicus, UniProt P35439+Q62645); details: 100 μM, in absence of both Glu and Gly
Chain of GluN1/2D (Q62645 28-1323, other chains not shown): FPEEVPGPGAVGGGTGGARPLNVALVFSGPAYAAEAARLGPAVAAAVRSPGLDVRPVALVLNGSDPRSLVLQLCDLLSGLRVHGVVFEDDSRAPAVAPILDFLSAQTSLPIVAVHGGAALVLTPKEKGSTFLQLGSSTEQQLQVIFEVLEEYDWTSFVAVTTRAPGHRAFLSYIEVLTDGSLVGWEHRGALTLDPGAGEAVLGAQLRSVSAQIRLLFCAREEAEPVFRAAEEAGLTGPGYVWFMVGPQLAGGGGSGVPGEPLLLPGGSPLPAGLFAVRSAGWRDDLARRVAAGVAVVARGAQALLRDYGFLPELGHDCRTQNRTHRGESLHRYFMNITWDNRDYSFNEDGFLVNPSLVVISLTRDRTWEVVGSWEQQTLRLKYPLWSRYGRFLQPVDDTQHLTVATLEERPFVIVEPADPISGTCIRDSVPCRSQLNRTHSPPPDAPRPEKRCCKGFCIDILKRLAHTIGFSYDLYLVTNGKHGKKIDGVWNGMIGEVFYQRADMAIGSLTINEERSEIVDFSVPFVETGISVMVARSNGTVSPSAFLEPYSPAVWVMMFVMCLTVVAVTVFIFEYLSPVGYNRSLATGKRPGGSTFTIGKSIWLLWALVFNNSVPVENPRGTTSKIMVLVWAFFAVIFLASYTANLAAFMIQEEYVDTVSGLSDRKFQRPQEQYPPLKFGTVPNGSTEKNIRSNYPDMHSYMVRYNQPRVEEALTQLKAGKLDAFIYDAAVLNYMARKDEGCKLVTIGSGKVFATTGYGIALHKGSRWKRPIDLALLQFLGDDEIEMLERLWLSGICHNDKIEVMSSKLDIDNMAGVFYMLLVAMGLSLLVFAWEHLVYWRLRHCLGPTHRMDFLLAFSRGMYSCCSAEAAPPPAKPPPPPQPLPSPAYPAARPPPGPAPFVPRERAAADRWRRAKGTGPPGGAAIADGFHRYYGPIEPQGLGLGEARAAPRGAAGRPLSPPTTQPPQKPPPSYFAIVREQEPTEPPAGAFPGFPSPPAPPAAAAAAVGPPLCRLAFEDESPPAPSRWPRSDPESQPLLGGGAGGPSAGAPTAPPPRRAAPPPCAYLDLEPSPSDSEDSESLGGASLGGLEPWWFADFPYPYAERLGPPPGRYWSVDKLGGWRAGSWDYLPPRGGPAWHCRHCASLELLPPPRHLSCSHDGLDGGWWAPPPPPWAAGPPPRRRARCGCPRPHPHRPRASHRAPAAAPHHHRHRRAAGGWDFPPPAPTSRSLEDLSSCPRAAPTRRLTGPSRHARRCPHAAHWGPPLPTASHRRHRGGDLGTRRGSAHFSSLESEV

GluN1/2C = GluN1/2C (Rattus norvegicus, UniProt P35439+Q00961); details: 100 μM, in absence of both Glu and Gly
GluN1/2B = GluN1/2B (Rattus norvegicus, UniProt P35439+Q00960); details: 100 μM, in absence of both Glu and Gly

Chain of GluA3o (P19492 23-888): as the sequence (P19492 23-888 isoform P19492-2 limits assumed) above, with T748N, P749A, S758N, I762L, A779S, K780G, D781G, S782G, G783D counted along it
Chain of GluA1o (P19490 19-907): as the sequence (P19490 19-907 isoform P19490-2 limits assumed) above, with G740N, S750N, V754L, S760N, K772G, D773G, S774G, G775D counted along it
Chain of GluA2(R)o (P19491 22-883 Q607R): as the sequence (P19491 22-883 isoform P19491-2 limits assumed) above, with Q586R, T744N, P745A, S754N, V758L, A775S, K776G, D777G, S778G, G779D counted along it

Row | EC50 (GluA3i) | EC50 (GluA1i) | EC50 (GluA2i(Q)) | Structure (SMILES) | GluA3o nH (GluA3o) | GluA1o nH (GluA1o) | GluA2(R)o nH (GluA2(R)o) | GluA2i(Q) SAR@: concentration giving significant agonist response >5% of the maximal response induced by (S)-Glu (GluA2i(Q)) | other results
1 | – | – | – | Cn1nnc(O)c1CC(N)C(=O)O (racemic) [Compound 6a, (RS) 2-Amino-3-(4-hydroxy-1-methyl-1H-1,2,3-triazol-5-yl)propanoic acid] | 0.95 ± 0.25 | 1.02 ± 0.17 | 0.95 ± 0.09 | SAR@ 300 μM | GluA4o nH (GluA4o): 0.89 ± 0.07
2 | – | – | – | CCCn1nnc(O)c1CC(N)C(=O)O (racemic) [Compound 6c, (RS) 2-Amino-3-(4-hydroxy-1-propyl-1H-1,2,3-triazol-5-yl)propanoic acid] | 0.75 ± 0.09 | 0.81 ± 0.07 | 1.55 ± 0.65 | SAR@ 1000 μM | –
3 | > 1000 µM | > 1000 µM | > 1000 µM | CCn1nc(O)c(CC(N)C(=O)O)n1 (racemic) [Compound 7b, (RS) 2-Amino-3-(2-ethyl-5-hydroxy-2H-1,2,3-triazol-4-yl)propanoic acid] | – | – | – | – | EC50 (GluA4i): > 1000 µM
4 | > 1000 µM | > 1000 µM | > 1000 µM | CCCn1nc(O)c(CC(N)C(=O)O)n1 (racemic) [Compound 7c, (RS) 2-Amino-3-(5-hydroxy-2-propyl-2H-1,2,3-triazol-4-yl)propanoic acid] | – | – | – | – | –
5 | – | – | – | Cn1nc(O)c(C(N)C(=O)O)n1 (racemic) [Compound 8, (RS) 2-Amino-2-(5-hydroxy-2-methyl-2H-1,2,3-triazol-4-yl)acetic acid] | – | – | – | – | Activation by compound alone (GluN1/2D): able to activate; Activation by compound alone (GluN1/2C): able to activate; Activation by compound alone (GluN1/2B): able to activate
